The target in experiment [1] is 5-hydroxytryptamine receptor 7 (Homo sapiens, UniProt P34969). The experiment is described as follows: Binding Activity Assay: Human 5-HT2A Receptor, Human 5-HT7 Receptor, and Human D2 Receptor: Binding affinity of the present compound for human 5-HT2A receptor, human 5-HT7 receptor, and human D2 receptor was measured by the following procedures.CHO cell membrane fraction in which human 5-HT2A receptor, human 5-HT7 receptor, or human D2 receptor was expressed was purchased from PerkinElmer, Inc. ….
5-hydroxytryptamine receptor 7, sequence (P34969 whole entry): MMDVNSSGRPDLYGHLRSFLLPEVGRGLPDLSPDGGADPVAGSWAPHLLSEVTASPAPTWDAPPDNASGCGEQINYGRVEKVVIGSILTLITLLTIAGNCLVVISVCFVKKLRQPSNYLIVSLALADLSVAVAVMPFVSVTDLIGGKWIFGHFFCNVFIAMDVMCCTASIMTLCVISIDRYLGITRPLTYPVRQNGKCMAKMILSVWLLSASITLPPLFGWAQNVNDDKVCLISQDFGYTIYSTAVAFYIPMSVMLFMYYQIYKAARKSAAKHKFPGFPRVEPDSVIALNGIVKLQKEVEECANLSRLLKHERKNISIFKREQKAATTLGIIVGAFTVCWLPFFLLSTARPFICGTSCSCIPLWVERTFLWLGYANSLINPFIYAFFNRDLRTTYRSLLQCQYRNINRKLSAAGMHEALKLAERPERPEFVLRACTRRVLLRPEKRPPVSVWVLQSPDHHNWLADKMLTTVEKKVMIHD
Description: (§1) Each mixture was incubated at room temperature for 60 minutes. Non specific binding to receptors was obtained from a competitive binding test in the presence of 10 μmol/L 8-OH-DPAT, 10 μmol/L Mianserin, or 10 μmol/L Spiperone, respectively.

In another experiment the target is D(2) dopamine receptor (Homo sapiens, UniProt P14416). The description is as above.
D(2) dopamine receptor, sequence (P14416 whole entry): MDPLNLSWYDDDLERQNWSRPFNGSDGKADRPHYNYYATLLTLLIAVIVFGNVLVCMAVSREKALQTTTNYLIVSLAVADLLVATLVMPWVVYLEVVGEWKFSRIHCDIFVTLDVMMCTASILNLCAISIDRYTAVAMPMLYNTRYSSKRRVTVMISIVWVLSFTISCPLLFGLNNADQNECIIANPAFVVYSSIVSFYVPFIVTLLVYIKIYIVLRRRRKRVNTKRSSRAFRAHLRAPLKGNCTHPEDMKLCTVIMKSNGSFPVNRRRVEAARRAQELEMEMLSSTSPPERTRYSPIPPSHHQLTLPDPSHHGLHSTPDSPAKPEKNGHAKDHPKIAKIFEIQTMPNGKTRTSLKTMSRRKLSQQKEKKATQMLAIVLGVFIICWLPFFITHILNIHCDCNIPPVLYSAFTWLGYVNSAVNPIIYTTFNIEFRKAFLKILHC

What is called Ki is the dissociation constant of the complex between target and ligand, obtained from inhibition or displacement. The low end stands for a stronger hold on the target, the high end for a looser hold on the target.

Description for D(2) dopamine receptor: as §1

As for `CCN(CCN1CCC(c2noc3cc(F)c(C)cc23)CC1)C(=O)[C@H](C)O`, the results for the Ki (in experiment [1]; on D(2) dopamine receptor) were 20.3 nM and > 1000 nM, respectively.

With `CCN(CCN1CCC(c2noc3cc(F)ccc23)CC1)C(=O)C1(O)CC1`, the Ki in experiment [1] was 1.1 nM; at D(2) dopamine receptor, < 100 nM.

As to `CCN(CCN1CCC(c2noc3cc(F)ccc23)CC1)C(=O)CCO`, the Ki in experiment [1] is 4.9 nM; on D(2) dopamine receptor, 155 nM.

The record behind these values is ChEMBL document CHEMBL5729119, “Aliphatic acid amide derivative” (2022).
